Test results published in patent US20230201217A1 (priority 2019, published 2023).
Entries after “also recorded” stand apart in the source; their conditions may differ.

Columns and labels:
male Sprague-Dawley rats = assay: Intracranial self-stimulation (ICSS), frequency-rate procedure
[1] = Toxicokinetics, 14-day oral gavage study in CD-1 mice; type: in vivo, mouse
Method: The relative metabolite concentrations were determined from plasma samples obtained on the last day of dosing in the 25 mg/kg/day group of animals using a UPLC/MS/MS method. Major metabolites were identified as M2 and M4, followed by M8 and M9. The parent 18-MC exposure was less than 1% of the total drug related material. No significant sex differences were observed.
All test article-treated animals underwent up-titration of dosage levels prior to reaching the maximum daily dose, which was administered for 14 consecutive days. […] The dose volume was 10 mL/kg for all groups. Groups 1 and 4 each consisted of 25 animals/sex and Groups 2-3 each consisted of 20 animals for each sex. Following 14 days of dose administration, 15 mice/sex/toxicology group were euthanized; the remaining 5, (10 for the control and high dose group) mice/sex/toxicology group were euthanized following a 14-day nondosing (recovery) period. Following the final blood collection (study day 13), all toxicokinetic animals (from a satellite group of 18 animals/sex/dose level) were euthanized.

mouse liver = assay: In vivo comet assay
Method: The comet assay (alkaline single cell gel electrophoresis) is a microgel electrophoretic technique that detects DNA damage in individual cells. DNA damage can be expressed as DNA single strand breaks, double strand breaks, and strand breaks induced by alkali labile sites. […] For this study, the liver was selected as the tissue for evaluation, since this tissue is expected to contain high concentrations of parent drug and metabolites following oral administration.
Male mice were administered oral doses of 0 (vehicle=5% dextrose), 50, 90 and 120 mg/kg/day by gavage according to the table below. Animals in groups 1-4 were dosed on three consecutive days and euthanized 3 to 4 hours after the last dose by CO2 inhalation. A separate group of animals were dosed with methyl methanesulfonate (MMS) which served as a positive control. Immediately following euthanasia, the liver was removed and collected from each animal.
In this study, comet tail migration, % tail DNA (also known as % tail intensity) and tail moment were determined for each animal/treatment group and served as parameters of DNA damage.

[2] = system: human peripheral blood lymphocytes (HPBL); assay: In vitro chromosome aberration test; type: cell-based
Method: Based on precipitates observed in the range-finding assay, concentrations used during the definitive chromosome aberration assay were a) 7.5, 15, 25, 50, 100, and 150 μg/mL in the 3-hour treatments with and without metabolic activation, and b) 1.0, 15, 25, 30, 35, 40, 45, 50, 55, 60, and 75 μg/mL in the 22-hour treatment without metabolic activation. These cultures along with the vehicle and one concentration of positive control for each treatment condition were analyzed for aberrations. Structural chromosome aberrations were scored for each concentration from a total of 200 metaphase cells (when possible) or ≥30 aberrant cells. Numerical aberrations were evaluated in 400 metaphase cells per concentration.

[3] = system: dopamine release in the nucleus accumbens shell; details: 40 mg/kg pretreatment, 19 hours beforehand; cited from earlier work
[4] = system: rats, cocaine seeking behavior; details: 40 mg/kg i.p.; cited from earlier work
CYP1A2 = CYP1A2 (Homo sapiens, UniProt P05177); details: recombinant enzyme
Method: (§1) Control incubations were performed for each assay with appropriate positive inhibitory controls.

[5] = Toxicokinetics, 14-day study in cynomolgus monkeys; type: in vivo, cynomolgus monkey
Method: The animals received 400 mg/kg on Day 1 and thereafter 300 mg/kg/day. The relative concentrations of the metabolites and 18-MC were determined by the peak-heights by UPLC/MS/MS method. Major metabolites were identified as M5>>M2>>P2. Metabolite M4 was on the borderline to be considered a major metabolite. The parent 18-MC exposure was less than 3% of the total drug and metabolite exposure.
Assessments of neurobehavioral effects and general toxicity were based on mortality, functional observational battery (FOB) evaluations, clinical observations, body weight, and body temperature; ophthalmoscopic, electrocardiographic examinations; and anatomic and clinical pathology. The anatomical pathology evaluations included histopathology of a full list of tissues from all animals and a comprehensive evaluation of the central nervous system (including selected peripheral nerves) utilizing whole body perfusion and special stains. Bone marrow smears from all animals were evaluated microscopically. Complete differentials and myeloid-erythroid (ME) ratios were performed. Toxicokinetic assessment was conducted for the test article and metabolites.
Systemic exposure to […] was independent of sex. […] The following discussion is therefore based on data for males and females combined.

[6] = Phase 1 first-in-human study, pharmacokinetics in plasma
Method: Fourteen normal, healthy volunteers were enrolled in the study. Seven volunteers were treated in the first cohort (3 placebo, 4 received a single dose of 20 mg of 18-MC) and seven in the second cohort (2 placebo, 5 received 8 mg as 4 mg doses of 18-MC administered at 0 and plus 10 hours). For Cohort A, volunteers were monitored in a hospital unit for 2 days (36 hours) days, and were followed up for safety at Days 3, 7 and 30. For Cohort B, volunteers were monitored in a hospital unit for 2 days (36 hours), and were followed up for safety at Days 3, 4, 7 and 30.
This study was designed as a randomized, double-blind, placebo-controlled, single-center Phase 1 first-in-human clinical trial. After screening, volunteers were admitted to the hospital for 36 hours. […] Study article was initiated on Day 1 and volunteers were discharged on Day 2. Cohort A were seen as outpatients on Days 3, 7 and 30. Cohort B were seen as outpatients on Days 3, 4, 7 and 30. 14 subjects were in the study, 5 male and 9 female.
For Cohort A, pharmacokinetic samples were obtained at baseline and at 0.5, 1.0, 2.0, 6.0, 12.0, 24, 36 hours, and 7 days post dose.
Samples underwent two analyses: A research assay (LG/MS/TOF) developed by MicroConstants, Inc., was used to collect the raw data. The first analysis was to quantitate 18-MG and the known metabolites M2, M4 and M5 (using standard curves included in the run). The second analysis compared the peak heights of 18-MG and all the metabolites that could be identified in terms of relative peak height (M1 through M10, and P1-P3).

CYP2E1 = CYP2E1 (Homo sapiens, UniProt P05181); details: recombinant enzyme
Method: as §1

[7] = system: isolated rabbit Purkinje fibers; assay: Action potential duration in rabbit cardiac Purkinje fibers
Method: The in vitro effect of 18-MC on the cardiac action potential was evaluated in isolated rabbit Purkinje fibers (FIG. 13). […] Fibers with resting potentials more negative than −80 mV and normal action potential morphology (APD90≥150 ms) were used in the study. Fibers were stimulated continuously at BCL of 1 second for at least 5 minutes. At the end of this period, baseline control APD rate dependence was measured using stimulus pulse trains consisting of approximately 50 pulses at BCL of 1 and 0.5 seconds. After returning to BCL of 1 second, 18-MC (or dl-sotalol) at the lowest concentration was applied for at least 20 minutes to allow equilibration, and the stimulus trains repeated. […] The average responses from the last five recorded action potentials from each stimulus train were analyzed for each test condition.
Electrophysiological recordings were performed with four nominal concentrations of 18-MC (0.3, 1, 3, and 10 μM) added sequentially to four preparations at two stimulus intervals (basic cycle lengths of 1 s and 0.5 s). The effects of 18-MC on action potential parameters were compared to time-matched vehicle control sequences.

plasma protein = assay: Plasma protein binding; type: in vitro ADME, Mouse
Description: There is no information on the protein binding of any of the metabolites.

[8] = after 14 days of 25 mg/kg 18-MC HCl
[9] = cohort B, 4 mg PO at 0 and +10 hours

CYP2E1, sequence (P05181 whole entry): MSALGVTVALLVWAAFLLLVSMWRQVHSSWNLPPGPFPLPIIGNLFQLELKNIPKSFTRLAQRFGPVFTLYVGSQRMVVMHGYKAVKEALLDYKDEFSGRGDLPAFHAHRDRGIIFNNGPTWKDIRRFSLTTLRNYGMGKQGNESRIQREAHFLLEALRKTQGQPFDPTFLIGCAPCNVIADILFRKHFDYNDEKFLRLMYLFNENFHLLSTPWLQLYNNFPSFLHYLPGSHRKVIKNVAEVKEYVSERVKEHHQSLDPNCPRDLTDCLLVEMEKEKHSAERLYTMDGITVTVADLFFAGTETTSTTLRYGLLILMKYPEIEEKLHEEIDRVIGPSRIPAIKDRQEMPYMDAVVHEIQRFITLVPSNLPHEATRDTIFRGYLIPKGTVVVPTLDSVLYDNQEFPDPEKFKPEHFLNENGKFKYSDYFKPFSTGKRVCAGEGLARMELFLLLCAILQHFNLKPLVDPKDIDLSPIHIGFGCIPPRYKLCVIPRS
CYP1A2, sequence (P05177 whole entry): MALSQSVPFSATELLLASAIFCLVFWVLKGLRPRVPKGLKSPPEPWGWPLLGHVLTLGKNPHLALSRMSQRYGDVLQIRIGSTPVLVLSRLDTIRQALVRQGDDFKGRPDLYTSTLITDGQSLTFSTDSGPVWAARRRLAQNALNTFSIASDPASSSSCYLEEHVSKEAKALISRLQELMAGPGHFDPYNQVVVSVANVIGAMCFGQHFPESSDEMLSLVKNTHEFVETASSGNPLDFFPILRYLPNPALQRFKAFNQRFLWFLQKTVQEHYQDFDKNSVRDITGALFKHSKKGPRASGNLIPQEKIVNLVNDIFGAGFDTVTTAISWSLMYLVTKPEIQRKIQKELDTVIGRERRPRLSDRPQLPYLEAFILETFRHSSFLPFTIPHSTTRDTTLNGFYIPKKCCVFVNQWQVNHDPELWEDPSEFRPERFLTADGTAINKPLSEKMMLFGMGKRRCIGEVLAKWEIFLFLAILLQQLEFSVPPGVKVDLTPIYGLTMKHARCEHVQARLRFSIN

For `COCCC1CC2CN3CCc4c([nH]c5ccccc45)C(C(=O)OC)(C2)C13.Cl` (stereo not drawn) [18-MC HCl, 18-Methoxycoronaridine hydrochloride], which “M50, Test, mean (SEM)” value (male Sprague-Dawley rats; 10 mg/kg i.p.) is on record?
The value was 1.94 (0.02) log/Hz.

What about the “Threshold (T0), Test, mean (SEM)” value (male Sprague-Dawley rats; 10 mg/kg i.p.) of the same compound?
The value was 1.80 (0.03) log/Hz.

What about the “M50, Test, mean (SEM)” value (male Sprague-Dawley rats; 40 mg/kg i.p.) of the same compound?
The value was 1.95 (0.02) log/Hz.

And the “Threshold (T0), Test, mean (SEM)” value (male Sprague-Dawley rats; 40 mg/kg i.p.)?
The value was 1.85 (0.03) log/Hz.

And the “M50, Test, mean (SEM)” value (male Sprague-Dawley rats; 56 mg/kg i.p.)?
Its value is 1.95 (0.02) log/Hz.

What about the “Threshold (T0), Test, mean (SEM)” value (male Sprague-Dawley rats; 56 mg/kg i.p.) of the same compound?
The value was 1.85 (0.02) log/Hz.

What about the “effect on ICSS frequency-rate curves, M50 and threshold (T0)” value (male Sprague-Dawley rats; 10, 40, 56 mg/kg i.p., 45 minutes before test session, hydrochloride) of the same compound?
Its value is “did not affect; also recorded: no main effect”.

What about the “AUC(0-24)” value ([1]; Day 0, Female, 25 mg/kg/day) of the same compound?
The value was 77.8 ng·h/mL.

And the Cmax ([1]; Day 0, Female, 25 mg/kg/day)?
The Cmax was 30.8 ng/mL.

What about the Tmax ([1]; Day 0, Female, 25 mg/kg/day) of the same compound?
Its Tmax is 30 min.

What about the “AUC(0-24)” value ([1]; Day 0, Female, 50 mg/kg/day) of the same compound?
Its value is 56.2 ng·h/mL.

And the Cmax ([1]; Day 0, Female, 50 mg/kg/day)?
The Cmax was 23.7 ng/mL.

What about the Tmax ([1]; Day 0, Female, 50 mg/kg/day) of the same compound?
The Tmax was 30 min.

And the “AUC(0-24)” value ([1]; Day 0, Female, 100 mg/kg/day)?
Its value is 187 ng·h/mL.

What about the Cmax ([1]; Day 0, Female, 100 mg/kg/day) of the same compound?
The Cmax was 51.8 ng/mL.

And the Tmax ([1]; Day 0, Female, 100 mg/kg/day)?
The Tmax was 60 min.

What about the “AUC(0-24)” value ([1]; Day 0, Male, 25 mg/kg/day) of the same compound?
Its value is 66.6 ng·h/mL.

What about the Cmax ([1]; Day 0, Male, 25 mg/kg/day) of the same compound?
Its Cmax is 19.4 ng/mL.

And the Tmax ([1]; Day 0, Male, 25 mg/kg/day)?
The Tmax was 30 min.

What about the “AUC(0-24)” value ([1]; Day 0, Male, 50 mg/kg/day) of the same compound?
Its value is 108 ng·h/mL.

What about the Cmax ([1]; Day 0, Male, 50 mg/kg/day) of the same compound?
Its Cmax is 44.3 ng/mL.

What about the Tmax ([1]; Day 0, Male, 50 mg/kg/day) of the same compound?
The Tmax was 30 min.

And the “AUC(0-24)” value ([1]; Day 0, Male, 100 mg/kg/day)?
The value was 349 ng·h/mL.

And the Cmax ([1]; Day 0, Male, 100 mg/kg/day)?
The Cmax was 131 ng/mL.

What about the Tmax ([1]; Day 0, Male, 100 mg/kg/day) of the same compound?
The Tmax was 60 min.

What about the “AUC(0-24)” value ([1]; Day 13, Female, 25 mg/kg/day) of the same compound?
The value was 54.5 ng·h/mL.

What about the Cmax ([1]; Day 13, Female, 25 mg/kg/day) of the same compound?
The Cmax was 25.6 ng/mL.

And the Tmax ([1]; Day 13, Female, 25 mg/kg/day)?
The Tmax was 30 min.

What about the “AUC(0-24)” value ([1]; Day 13, Female, 50 mg/kg/day) of the same compound?
The value was 119 ng·h/mL.

What about the Cmax ([1]; Day 13, Female, 50 mg/kg/day) of the same compound?
Its Cmax is 49.9 ng/mL.

What about the Tmax ([1]; Day 13, Female, 50 mg/kg/day) of the same compound?
The Tmax was 30 min.

And the “AUC(0-24)” value ([1]; Day 13, Female, 100 mg/kg/day)?
The value was 188 ng·h/mL.

What about the Cmax ([1]; Day 13, Female, 100 mg/kg/day) of the same compound?
The Cmax was 44.0 ng/mL.

What about the T1/2 ([1]; Day 13, Female, 100 mg/kg/day) of the same compound?
Its T1/2 is 147 min.

And the Tmax ([1]; Day 13, Female, 100 mg/kg/day)?
The Tmax was 30 min.

And the “AUC(0-24)” value ([1]; Day 13, Male, 25 mg/kg/day)?
The value was 50.5 ng·h/mL.

What about the Cmax ([1]; Day 13, Male, 25 mg/kg/day) of the same compound?
The Cmax was 23.6 ng/mL.

And the Tmax ([1]; Day 13, Male, 25 mg/kg/day)?
The Tmax was 30 min.

What about the “AUC(0-24)” value ([1]; Day 13, Male, 50 mg/kg/day) of the same compound?
The value was 164 ng·h/mL.

And the Cmax ([1]; Day 13, Male, 50 mg/kg/day)?
The Cmax was 92.9 ng/mL.

And the T1/2 ([1]; Day 13, Male, 50 mg/kg/day)?
Its T1/2 is 107 min.

What about the Tmax ([1]; Day 13, Male, 50 mg/kg/day) of the same compound?
Its Tmax is 30 min.

What about the “AUC(0-24)” value ([1]; Day 13, Male, 100 mg/kg/day) of the same compound?
The value was 329 ng·h/mL.

And the Cmax ([1]; Day 13, Male, 100 mg/kg/day)?
The Cmax was 136 ng/mL.

And the T1/2 ([1]; Day 13, Male, 100 mg/kg/day)?
The T1/2 was 116 min.

What about the Tmax ([1]; Day 13, Male, 100 mg/kg/day) of the same compound?
Its Tmax is 30 min.

And the “mean % tail DNA” value (mouse liver; 90 mg/kg/day, vehicle 1.27+/−0.52)?
The value was 2.60+/−0.7%.

And the “mouse comet assay result” value (mouse liver; 50, 90, 120 mg/kg/day, 3 days)?
Its value is “negative”.

And the structural chromosome aberrations ([2]; with metabolic activation)?
Its structural chromosome aberrations is “positive”.

What about the structural chromosome aberrations ([2]; without metabolic activation) of the same compound?
The structural chromosome aberrations was “negative”.

What about the “acute dopamine response to cocaine” value [3] of the same compound?
Its value is “little effect”.

What about the “sensitized dopamine response to cocaine” value [3] of the same compound?
The value was “abolished the sensitized dopamine response”.

And the “reinstatement effect of cues associated with cocaine self-administration” value [4]?
Its value is “blocked the reinstatement effect”.

Which results are given for `COCC[C@H]1CC2CN3CCc4c([nH]c5ccccc45)[C@](C(=O)OC)(C2)[C@H]13` [18-MC, 18-methoxycoronaridine]?
IC50 (CYP1A2): > 100 µM; AUC [1, 8]: 251 ng·h/mL; Cmax [1, 8]: 105 ng/mL; AUC ([5]; Day 14, 300 mg/kg 18-MC HCl): 1210 ng·h/mL; Cmax ([5]; Day 14, 300 mg/kg 18-MC HCl): 144 ng/mL; AUC(0-24) ([5]; Day 14, 400 mg/kg 1 day then 300 mg/kg/day, averaged across the sexes): 144000 ng·h/mL; time of median peak plasma concentration ([5]; all dose groups, Days 1 and 14): ≤ 1 h; elimination half-life ([6]; 4 mg at 0 and +10 hours (8 mg total), longer sampling interval): about 48 hours; Tmax ([6]; cohort A or B, generally): ½; AUCall, Average ([6]; cohort A, 20 mg PO single dose): 339 ng·h/mL; AUCall, Max ([6]; cohort A, 20 mg PO single dose): 447 ng·h/mL; AUCall, Min ([6]; cohort A, 20 mg PO single dose): 241 ng·h/mL; Cmax, Average ([6]; cohort A, 20 mg PO single dose): 119 ng/mL; Cmax, Max ([6]; cohort A, 20 mg PO single dose): 182 ng/mL; Cmax, Min ([6]; cohort A, 20 mg PO single dose): 92 ng/mL; Half-Life, Average ([6]; cohort A, 20 mg PO single dose): 1070 min; Half-Life, Max ([6]; cohort A, 20 mg PO single dose): 21.7 h; Half-Life, Min ([6]; cohort A, 20 mg PO single dose): 852 min; Tmax, Average ([6]; cohort A, 20 mg PO single dose): 30 min; Tmax, Max ([6]; cohort A, 20 mg PO single dose): 30 min; Tmax, Min ([6]; cohort A, 20 mg PO single dose): 30 min; AUCall, Average [6, 9]: 195 ng·h/mL; AUCall, Max [6, 9]: 400 ng·h/mL; AUCall, Min [6, 9]: 124 ng·h/mL; Cmax, Max [6, 9]: 46 ng/mL; Cmax, Min [6, 9]: 20 ng/mL; Half-Life, Average [6, 9]: 1010 min; Half-Life, Max [6, 9]: 52.2 h; Half-Life, Min [6, 9]: 180 min; Tmax, Average [6, 9]: 153 min; Tmax, Max [6, 9]: 615 min; Tmax, Min [6, 9]: 30 min; IC50 (CYP2E1): 28 µM; APD60 ([7]; 3 μM, 1 second BCL): statistically significant (p<0.05) shortening; APD60 ([7]; 10 μM, 0.5 and 1 s BCL): statistically significant (P<0.05) shortening; resting membrane potential, action potential amplitude, Vmax ([7]; any concentration tested, two stimulus intervals): did not induce significant changes; % Bound Mean ± SD (plasma protein; 200 ng/mL): 97.0 ± 0.208%; % Bound Mean ± SD (plasma protein; 600 ng/mL): 97.1 ± 0.058%; % Bound Mean ± SD (plasma protein; 5,000 ng/mL): 96.5 ± 0.071%; Average % Bound Mean ± SD (plasma protein; average of 3 concentrations): 96.9 ± 0.321%
